Results: US7812022B2 (GlaxoSmithKline LLC, priority 2004, dated 2010)

Columns and labels:
ErbB2 or EGFR = biological target: T1, ErbB2 or EGFR; assay: ErbB family substrate phosphorylation enzyme assay (HTRF), Method A or Method B; format: biochemical
T1 construct: enzymes purified from a baculovirus expression system; Reagent production was conducted essentially as described in Brignola, P. S., et al, (2002) J. Biol. Chem. 277(2): 1576-1585
Method in brief: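 Baculovirus-expressed EGFR or ErbB2 (0.8 or 10 nM in enzyme mix) phosphorylates biotinylated Peptide C with 20 µM ATP and 0.8 µM peptide (substrate-mix levels), MnCl2, pH 7.5. Reaction ran 90 min at 20 °C with EDTA stop and HTRF anti-phosphotyrosine read. Method A: enzyme added last; Method B: 1 h enzyme–compound preincubation.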

[1] = test system: BT474 and HN5 tumor cell lines; assay: Methylene blue growth inhibition assay (cellular Method A); format: cell-based, Human; conditions: Homo sapiens, BT-474, 72 h, 3 days, read-out: Activity (Method): growth inhibition IC50 class
Method in brief: (§1)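 Growth inhibition measured by methylene blue staining of biomass (OD 620) after 3 days' compound exposure at 37° C, final DMSO 0.3%. Cell lines: BT474 (10,000/well), HN5 (3,000/well) and Colo205, all in DMEM with 10% FBS; IC50 fitted by nonlinear regression against vehicle-treated wells.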

Colo205 tumor cell lines = assay: Methylene blue growth inhibition assay (cellular Method A), Colo205; format: cell-based, Human; conditions: Homo sapiens, COLO 205, 72 h, 3 days, read-out: Activity (Method): growth inhibition IC50 class
Method in brief: as §1

[2] = Method A: substrate mix added first, reaction started with enzyme mix
[3] = Method B: enzyme mix pre-incubated with compound 1 hour at 20° C., started with substrate mix

Compound: COc1ccc(Nc2nccc(-c3c(-c4cccc(NC(=O)c5c(F)cccc5F)c4)nn4ccccc34)n2)cc1F [Example 29, 2,6-Difluoro-N-{3-[3-(2-{[3-fluoro-4-(methyloxy)-phenyl]amino}-4-pyrimidinyl)pyrazolo[1,5-a]pyridin-2-yl]phenyl}benzamide]
- Activity (Method): pIC50 class against ErbB2 or EGFR (ErbB2 or EGFR; [2]): ++ (A) (at least one pIC50 measurement greater than 6 against either ErbB2 or EGFR but no measurement greater than pIC50 of 7)
- IC50 [1]: < 100 nM
- IC50 (Colo205 tumor cell lines): > 1000 nM

Compound: CN(C)CCOc1ccc(Nc2nccc(-c3c(-c4cccc(NC(=O)c5c(F)cccc5F)c4)nn4ccccc34)n2)cc1 [Example 105, N-[3-(3-{2-[(4-{[2-(dimethylamino)ethyl]oxy}phenyl)-amino]-4-pyrimidinyl}pyrazolo[1,5-a]pyridin-2-yl)phenyl]-2,6-difluorobenzamide]
- Activity (Method): pIC50 class against ErbB2 or EGFR (ErbB2 or EGFR; [3]): +++ (B) (at least one pIC50 measurement of greater than 7 against either ErbB2 or EGFR)
- IC50 [1]: < 100 nM
- IC50 (Colo205 tumor cell lines): < 100 nM

Compound: CN1CCc2ccc(Nc3nccc(-c4c(-c5cccc(NC(=O)c6c(F)cccc6F)c5)nn5ccccc45)n3)cc2C1 [Example 179, 2,6-Difluoro-N-[3-(3-{2-[(2-methyl-1,2,3,4-tetrahydro-7-isoquinolinyl)amino]-4-pyrimidinyl}pyrazolo[1,5-a]pyridin-2-yl)phenyl]benzamide]
- Activity (Method): pIC50 class against ErbB2 or EGFR (ErbB2 or EGFR; [3]): +++ (B) (at least one pIC50 measurement of greater than 7 against either ErbB2 or EGFR)
- IC50 [1]: < 100 nM
- IC50 (Colo205 tumor cell lines): 100 to 1000 nM

Compound: NS(=O)(=O)CCc1cccc(Nc2nccc(-c3c(-c4cccc(NC(=O)c5c(F)cccc5F)c4)nn4ccccc34)n2)c1 [Example 119, N-(3-{3-[2-({3-[2-(aminosulfonyl)ethyl]phenyl}-amino)-4-pyrimidinyl]pyrazolo[1,5-a]pyridin-2-yl}phenyl)-2,6-difluorobenzamide]
- Activity (Method): pIC50 class against ErbB2 or EGFR (ErbB2 or EGFR; [3]): +++ (B) (at least one pIC50 measurement of greater than 7 against either ErbB2 or EGFR)
- IC50 [1]: < 100 nM
- IC50 (Colo205 tumor cell lines): 100 to 1000 nM

Compound: CS(=O)(=O)Cc1ccc(Nc2nccc(-c3c(-c4cccc(NC(=O)c5c(F)cccc5F)c4)nn4ccccc34)n2)cc1 [Example 116, 2,6-Difluoro-N-(3-{3-[2-({4-[(methylsulfonyl)methyl]-phenyl}amino)-4-pyrimidinyl]pyrazolo[1,5-a]pyridin-2-yl}phenyl)benzamide]
- Activity (Method): pIC50 class against ErbB2 or EGFR (ErbB2 or EGFR; [3]): +++ (B) (at least one pIC50 measurement of greater than 7 against either ErbB2 or EGFR)
- IC50 [1]: < 100 nM
- IC50 (Colo205 tumor cell lines): 100 to 1000 nM

Compound: O=C(Nc1ccccc1)Nc1cccc(-c2nn3ccccc3c2-c2ccnc(Nc3ccc4c(c3)OCCO4)n2)c1 [Example 1, 1-(3-{3-[2-(2,3-Dihydro-benzo[1,4]dioxin-6-ylamino)-pyrimidin-4-yl]-pyrazolo[1,5-]pyridin-2-yl}-phenyl)-3-phenyl-urea]
- Activity (Method): pIC50 class against ErbB2 or EGFR (ErbB2 or EGFR; [2]): ++ (A) (at least one pIC50 measurement greater than 6 against either ErbB2 or EGFR but no measurement greater than pIC50 of 7)
- IC50 [1]: > 1000 nM
- IC50 (Colo205 tumor cell lines): > 1000 nM

Compound: CN(C)CCCNc1ccc(Nc2nccc(-c3c(-c4cccc(NC(=O)c5c(F)cccc5F)c4)nn4ccccc34)n2)cc1F [Example 41, N-[3-(3-{2-[(4-{[3-(dimethylamino)propyl]amino}-3-fluorophenyl)amino]-4-pyrimidinyl}pyrazolo[1,5-a]pyridin-2-yl)phenyl]-2,6-difluorobenzamide]
- Activity (Method): pIC50 class against ErbB2 or EGFR (ErbB2 or EGFR; [3]): +++ (B) (at least one pIC50 measurement of greater than 7 against either ErbB2 or EGFR)
- IC50 [1]: < 100 nM
- IC50 (Colo205 tumor cell lines): 100 to 1000 nM

Compound: Cc1cccc2c(-c3ccnc(Nc4cccc(F)c4)n3)c(-c3cccc(NC(=O)c4c(F)cccc4F)c3)nn12 [Example 156, 2,6-Difluoro-N-[3-(3-{2-[(3-fluorophenyl)amino]-pyrimidin-4-yl}-7-methylpyrazolo[1,5-a]pyridin-2-yl)phenyl]benzamide]
- Activity (Method): pIC50 class against ErbB2 or EGFR (ErbB2 or EGFR; [2]): ++ (A) (at least one pIC50 measurement greater than 6 against either ErbB2 or EGFR but no measurement greater than pIC50 of 7)
- IC50 [1]: 100 to 1000 nM
- IC50 (Colo205 tumor cell lines): > 1000 nM

Compound: O=C(Nc1cccc(-c2nn3ccccc3c2-c2ccnc(Nc3ccc(CCN4CCOCC4)cc3)n2)c1)c1c(F)cccc1F [Example 56, 2,6-Difluoro-N-(3-{3-[2-({4-[2-(4-morpholinyl)ethyl]-phenyl}amino)-4-pyrimidinyl]pyrazolo[1,5-a]pyridin-2-yl}phenyl)benzamide]
- Activity (Method): pIC50 class against ErbB2 or EGFR (ErbB2 or EGFR; [3]): +++ (B) (at least one pIC50 measurement of greater than 7 against either ErbB2 or EGFR)
- IC50 [1]: < 100 nM
- IC50 (Colo205 tumor cell lines): 100 to 1000 nM

Compound: CN1CCN(c2ccc(Nc3nccc(-c4c(-c5cccc(NC(=O)c6c(F)cccc6F)c5)nn5ccccc45)n3)cc2)CC1 [Example 91]
- Activity (Method): pIC50 class against ErbB2 or EGFR (ErbB2 or EGFR; [3]): +++ (B) (at least one pIC50 measurement of greater than 7 against either ErbB2 or EGFR)
- IC50 [1]: < 100 nM
- IC50 (Colo205 tumor cell lines): 100 to 1000 nM

Compound: O=C(Nc1cccc(-c2nn3ccccc3c2-c2ccnc(Nc3ccc4nn[nH]c4c3)n2)c1)c1c(F)cccc1F [Example 31, N-(3-{3-[2-(1H-1,2,3-benzotriazol-5-ylamino)-4-pyrimidinyl]pyrazolo[1,5-a]pyridin-2-yl}phenyl)-2,6-difluorobenzamide]
- Activity (Method): pIC50 class against ErbB2 or EGFR (ErbB2 or EGFR; [3]): +++ (B) (at least one pIC50 measurement of greater than 7 against either ErbB2 or EGFR)
- IC50 [1]: < 100 nM
- IC50 (Colo205 tumor cell lines): 100 to 1000 nM

Compound: COc1ccc(Nc2nccc(-c3c(-c4cccc(NC(=O)c5cc(F)ccc5F)c4)nn4ccccc34)n2)cc1F [Example 46, 2,5-Difluoro-N-{3-[3-(2-{[3-fluoro-4-(methyloxy)phenyl]amino}-4-pyrimidinyl)pyrazolo[1,5-a]pyridin-2-yl]phenyl}benzamide]
- Activity (Method): pIC50 class against ErbB2 or EGFR (ErbB2 or EGFR; [3]): + (B) (no pIC50 measurement greater than 6 against either ErbB2 or EGFR)
- IC50 [1]: > 1000 nM
- IC50 (Colo205 tumor cell lines): > 1000 nM

Compound: COc1cccc(Nc2nccc(-c3c(-c4cccc(NC(=O)c5c(F)cccc5F)c4)nn4ccccc34)n2)c1 [Example 28, 2,6-Difluoro-N-{3-[3-(2-{[3-(methyloxy)phenyl]-amino}-4-pyrimidinyl)pyrazolo[1,5-a]pyridin-2-yl]phenyl}benzamide]
- Activity (Method): pIC50 class against ErbB2 or EGFR (ErbB2 or EGFR; [3]): +++ (B) (at least one pIC50 measurement of greater than 7 against either ErbB2 or EGFR)
- IC50 [1]: < 100 nM
- IC50 (Colo205 tumor cell lines): 100 to 1000 nM

Compound: CN1CCN(Cc2cccc(Nc3nccc(-c4c(-c5cccc(NC(=O)c6c(F)cccc6F)c5)nn5ccccc45)n3)c2)CC1 [Example 57, 2,6-Difluoro-N-(3-{3-[2-({3-[(4-methyl-1-piperazinyl)-methyl]phenyl}amino)-4-pyrimidinyl]pyrazolo[1,5-a]pyridin-2-yl}phenyl)benzamide]
- Activity (Method): pIC50 class against ErbB2 or EGFR (ErbB2 or EGFR; [3]): +++ (B) (at least one pIC50 measurement of greater than 7 against either ErbB2 or EGFR)
- IC50 [1]: < 100 nM
- IC50 (Colo205 tumor cell lines): 100 to 1000 nM

Compound: O=C(Nc1cccc(-c2nn3ccccc3c2-c2ccnc(Nc3ccc(OCCN4CCCCC4)c(F)c3)n2)c1)c1c(F)cccc1F [Example 134, 2,6-Difluoro-N-[3-(3-{2-[(3-fluoro-4-{[2-(1-piperidinyl)ethyl]oxy}phenyl)amino]-4-pyrimidinyl}pyrazolo[1,5-a]pyridin-2-yl)phenyl]benzamide]
- Activity (Method): pIC50 class against ErbB2 or EGFR (ErbB2 or EGFR; [2]): +++ (A) (at least one pIC50 measurement of greater than 7 against either ErbB2 or EGFR)
- IC50 [1]: < 100 nM
- IC50 (Colo205 tumor cell lines): > 1000 nM

Compound: NC1Cc2ccc(Nc3nccc(-c4c(-c5cccc(NC(=O)c6c(F)cccc6F)c5)nn5ccccc45)n3)cc2C1 (stereo not drawn) [Example 177, N-[3-(3-{2-[(2-Amino-2,3-dihydro-1H-inden-5-yl)amino]-4-pyrimidinyl}pyrazolo[1,5-a]pyridin-2-yl)phenyl]-2,6-difluorobenzamide]
- Activity (Method): pIC50 class against ErbB2 or EGFR (ErbB2 or EGFR; [3]): +++ (B) (at least one pIC50 measurement of greater than 7 against either ErbB2 or EGFR)
- IC50 [1]: < 100 nM
- IC50 (Colo205 tumor cell lines): 100 to 1000 nM

Compound: Cc1ccc(F)cc1C(=O)Nc1cccc(-c2nn3ccccc3c2-c2ccnc(Nc3cccc(F)c3)n2)c1 [Example 83, 5-Fluoro-N-[3-(3-{2-[(3-fluorophenyl)amino]-4-pyrimidinyl}pyrazolo[1,5-a]pyridin-2-yl)phenyl]-2-methylbenzamide]
- Activity (Method): pIC50 class against ErbB2 or EGFR (ErbB2 or EGFR; [2]): ++ (A) (at least one pIC50 measurement greater than 6 against either ErbB2 or EGFR but no measurement greater than pIC50 of 7)
- IC50 [1]: 100 to 1000 nM
- IC50 (Colo205 tumor cell lines): > 1000 nM

Compound: CCS(=O)(=O)c1ccc(OC)c(Nc2nccc(-c3c(-c4cccc(NC(=O)c5c(F)cccc5F)c4)nn4ccccc34)n2)c1 [Example 121, N-{3-[3-(2-{[5-(ethylsulfonyl)-2-(methyloxy)phenyl]-amino}-4-pyrimidinyl)pyrazolo[1,5-a]pyridin-2-yl]phenyl}-2,6-difluorobenzamide]
- Activity (Method): pIC50 class against ErbB2 or EGFR (ErbB2 or EGFR; [2]): +++ (A) (at least one pIC50 measurement of greater than 7 against either ErbB2 or EGFR)
- IC50 [1]: 100 to 1000 nM
- IC50 (Colo205 tumor cell lines): > 1000 nM

Compound: CN1CCc2ccc(Nc3nccc(-c4c(-c5cccc(NC(=O)c6cc(F)ccc6F)c5)nn5ccccc45)n3)cc2C1 [Example 189, 2,5-Difluoro-N-[3-(3-{2-[(2-methyl-1,2,3,4-tetrahydro-7-isoquinolinyl)amino]-4-pyrimidinyl}pyrazolo[1,5-a]pyridin-2-yl)phenyl]benzamide]
- Activity (Method): pIC50 class against ErbB2 or EGFR (ErbB2 or EGFR; [3]): +++ (B) (at least one pIC50 measurement of greater than 7 against either ErbB2 or EGFR)
- IC50 [1]: < 100 nM
- IC50 (Colo205 tumor cell lines): > 1000 nM
